The values that follow are results of earlier work, collected in US10058529B2, “Nutraceutical composition for PDE4 inhibition, enhanced dopamine metabolism and long term potentiation” (priority 2013, dated 2018).

One data set deals with acetylcholine. The conditions noted are these: in vivo.
Data set [1] relates to phosphodiesterase enzymes (PDE 1 through 5).
The conditions of data set [2]: co-administered piperine.
In a further data set the test system is PDE4. The conditions noted are these: reference 38.
The conditions of data set [3]: low doses.

As to `CC(=O)O[C@H](CC(=O)[O-])C[N+](C)(C)C` [Acetyl-L-carnitine, acetyl-L-carnitine], the “levels of acetylcholine in the brain” value in the data set with acetylcholine is “increase”. Take `O=c1cc(-c2ccc(O)c(O)c2)oc2cc(O)cc(O)c12` [Luteolin, luteolin]: in data set [1], the “inhibition of phosphodiesterase enzymes (PDE 1 through 5)” value is “can inhibit”. For the molecule `O=C(/C=C/C=C/c1ccc2c(c1)OCO2)N1CCCCC1` [Piperine, piperine], the bioavailability of resveratrol result in data set [2] is “enhance the bioavailability”. As for `COc1ccc([C@@]23C=CC(=O)C[C@@H]2N(C)CC3)cc1OC` [mesembrenone], the PDE4 inhibition result in the data set on PDE4 is given as “significantly inhibit”. With `COc1ccc(C2CNC(=O)C2)cc1OC1CCCC1` (centres unmarked) [rolipram], the side effect entry in data set [3] is reported as “emesis (vomiting) at low doses”.
